In publication PMC7822063, “Analogues of 2′-hydroxychalcone with modified C4-substituents as the inhibitors against human acetylcholinesterase” (Journal of Enzyme Inhibition and Medicinal Chemistry, 2020):

Tests used:
human recombinant AChE = human recombinant AChE (Homo sapiens, UniProt P22303); assay: biochemical; settings: for inhibition at 10 µM / IC50: mean of triplicate; for Selectivity index: IC50 (BuChE)/IC50 (AChE)
Experimental: To determine the inhibitory activity of the target compounds towards cholinesterases, the AChE and BuChE inhibition assays were performed in 96 well plates by the method of Ellman with slight modifications. […] Then, the mixture was incubated for 20 min at 37 °C. Subsequently, the reaction was initiated by addition of 50 μL (0.120 mM) of the substrate, acetylthiocholine (ATC) iodide or butyrylthiocholine (BTC) iodide (depending on the enzyme). […] Each assay was performed in triplicate. The percentage of inhibition was calculated using the following expression: (E–S)/E ×100 where E is the activity of the enzyme without test compound and S is the activity of the enzyme with the test compound. IC50 values were obtained from concentration-inhibition experiments by nonlinear regression analysis using PRISM® v5.0 (GraphPad Inc., San Diego, CA).
The designed 2′-hydroxychalcone derivatives were evaluated for their in vitro inhibitory activities against human recombinant AChE according to Ellman’s colorimetric assay method.

equine BuChE = equine BuChE (Equus caballus, UniProt P81908); assay: biochemical; assay type: biochemical; settings: mean of triplicate
Chain of equine BuChE (P81908 whole entry): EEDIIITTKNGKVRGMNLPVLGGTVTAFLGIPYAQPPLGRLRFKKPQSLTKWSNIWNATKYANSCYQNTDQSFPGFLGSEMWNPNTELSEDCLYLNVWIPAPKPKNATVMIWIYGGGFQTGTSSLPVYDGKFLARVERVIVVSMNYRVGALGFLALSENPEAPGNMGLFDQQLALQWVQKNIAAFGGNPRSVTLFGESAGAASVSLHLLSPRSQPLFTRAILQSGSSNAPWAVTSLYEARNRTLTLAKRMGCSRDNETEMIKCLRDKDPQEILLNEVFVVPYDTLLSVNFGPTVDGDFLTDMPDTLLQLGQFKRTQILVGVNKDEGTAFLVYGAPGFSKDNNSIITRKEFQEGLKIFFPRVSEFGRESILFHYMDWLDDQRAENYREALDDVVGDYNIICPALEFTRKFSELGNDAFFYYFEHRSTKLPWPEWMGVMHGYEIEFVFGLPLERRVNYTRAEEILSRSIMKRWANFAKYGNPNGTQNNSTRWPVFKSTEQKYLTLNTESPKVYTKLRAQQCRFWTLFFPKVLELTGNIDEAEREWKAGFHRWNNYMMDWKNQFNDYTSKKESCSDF

Chain of human recombinant AChE (P22303 32-614): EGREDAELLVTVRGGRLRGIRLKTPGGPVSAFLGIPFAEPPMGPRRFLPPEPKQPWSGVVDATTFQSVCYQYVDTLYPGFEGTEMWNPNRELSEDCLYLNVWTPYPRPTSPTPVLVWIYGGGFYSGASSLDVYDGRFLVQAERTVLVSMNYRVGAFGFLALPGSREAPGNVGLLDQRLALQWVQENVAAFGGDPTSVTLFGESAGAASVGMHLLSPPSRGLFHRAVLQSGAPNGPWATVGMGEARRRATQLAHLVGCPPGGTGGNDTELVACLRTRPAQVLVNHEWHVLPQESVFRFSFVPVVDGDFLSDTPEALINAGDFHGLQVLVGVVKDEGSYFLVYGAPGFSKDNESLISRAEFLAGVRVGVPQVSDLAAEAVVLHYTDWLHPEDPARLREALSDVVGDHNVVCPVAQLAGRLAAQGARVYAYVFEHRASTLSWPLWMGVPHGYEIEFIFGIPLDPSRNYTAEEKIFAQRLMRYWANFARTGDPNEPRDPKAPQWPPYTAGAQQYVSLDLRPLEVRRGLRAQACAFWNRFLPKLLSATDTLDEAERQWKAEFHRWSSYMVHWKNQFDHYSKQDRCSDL

Row | SMILES | inhibition at 10 µM (human recombinant AChE) [%] | Selectivity index (human recombinant AChE) | IC50 (human recombinant AChE) [µM] | IC50 (equine BuChE) [µM] | Equine BuChE IC50 (equine BuChE)
1 | CCN(CC)C(=O)Cc1ccc(/C=C/C(=O)c2ccc(OC)cc2O)cc1 [Compound 4a, (E)-N,N-diethyl-2-(4-(3-(2-hydroxy-4-methoxyphenyl)-3-oxoprop-1-en-1yl)phenyl)acetamide] | 67.2 |  |  |  | 
2 | CCN(CC)C(=O)Cc1ccc(/C=C/C(=O)c2cc(OC)c(OC)cc2O)cc1 [Compound 4b, (E)-N,N-diethyl-2-(4-(3-(2-hydroxy-4,5-dimethoxyphenyl)-3-oxoprop-1-en-1-yl)phenyl)acetamide] | 58.5 |  |  |  | 
3 | CCN(CC)C(=O)Cc1ccc(/C=C/C(=O)c2c(O)cc(OC)cc2OC)cc1 [Compound 4c, (E)-N,N-diethyl-2-(4-(3-(2-hydroxy-4,6-dimethoxyphenyl)-3-oxoprop-1-en-1-yl)phenyl)acetamide] | 87.5 | >30 | 3.3 ± 1.3 | > 100 | 
4 | COc1ccc(C(=O)/C=C/c2ccc(CC(=O)N3CCCC3)cc2)c(O)c1 [Compound 4d, (E)-1-(2-hydroxy-4-methoxyphenyl)-3-(4-(2-oxo-2-(pyrrolidin-1-yl)ethyl)phenyl)prop-2-en-1-one] | 30.8 |  |  |  | 
5 | COc1cc(O)c(C(=O)/C=C/c2ccc(CC(=O)N3CCCC3)cc2)cc1OC [Compound 4e, (E)-1-(2-hydroxy-4,5-dimethoxyphenyl)-3-(4-(2-oxo-2-(pyrrolidin-1-yl)ethyl)phenyl)prop-2-en-1-one] | 58.9 |  |  |  | 
6 | O=C(O)Cc1ccc(/C=C/C(=O)c2ccccc2O)cc1 [Compound 4f, (E)-2-(4-(3-(2-hydroxyphenyl)-3-oxoprop-1-en-1-yl)phenyl)acetic acid] | 10.7 |  |  |  | 
7 | COc1ccc(O)c(C(=O)/C=C/c2ccc(CC(=O)O)cc2)c1 [Compound 4g, (E)-2-(4-(3-(2-hydroxy-5-methoxyphenyl)-3-oxoprop-1-en-1-yl)phenyl)acetic acid] | 27 |  |  |  | 
8 | COc1cc(O)c(C(=O)/C=C/c2ccc(CC(=O)O)cc2)c(OC)c1 [Compound 4h, (E)-2-(4-(3-(2-hydroxy-4,6-dimethoxyphenyl)-3-oxoprop-1-en-1-yl)phenyl)acetic acid] | 15.6 |  |  |  | 
9 | COc1ccc(C(=O)/C=C/c2ccc(OCCN3CCCCC3)cc2)c(O)c1 [Compound 8a, (E)-1-(2-hydroxy-4-methoxyphenyl)-3-(4-(2-(piperidin-1-yl)ethoxy)phenyl)prop-2-en-1-one] | 79.9 | >24 | 4.2 ± 1.3 | > 100 | inactive
10 | COc1ccc(C(=O)/C=C/c2ccc(OCCN3CCCC3)cc2)c(O)c1 [Compound 8b, (E)-1-(2-hydroxy-4-methoxyphenyl)-3-(4-(2-(pyrrolidin-1-yl)ethoxy)phenyl)prop-2-en-1-one] | 83 | 5.1 | 12.8 ± 4.8 | 65.6 ± 14.8 | 
11 | COc1cc(O)c(C(=O)/C=C/c2ccc(OCCN3CCCCC3)cc2)cc1OC [Compound 8c, (E)-1-(2-hydroxy-4,5-dimethoxyphenyl)-3-(4-(2-(piperidin-1-yl)ethoxy)phenyl)prop-2-en-1-one] | 52.5 |  |  |  | 
12 | COc1cc(O)c(C(=O)/C=C/c2ccc(OCCN3CCCC3)cc2)cc1OC [Compound 8d, (E)-1-(2-hydroxy-4,5-dimethoxyphenyl)-3-(4-(2-(pyrrolidin-1-yl)ethoxy)phenyl)prop-2-en-1-one] | 80.6 | 5.7 | 15.9 ± 1.8 | 89.9 ± 12 | 
13 | COc1cc(O)c(C(=O)/C=C/c2ccc(OCCN3CCCCC3)cc2)c(OC)c1 [Compound 8e, (E)-1-(2-hydroxy-4,6-dimethoxyphenyl)-3-(4-(2-(piperidin-1-yl)ethoxy)phenyl)prop-2-en-1-one] | 83.6 | 4.0 | 4.6 ± 0.9 | 18.3 ± 8 | 
14 | COc1cc(O)c(C(=O)/C=C/c2ccc(OCCN3CCCC3)cc2)c(OC)c1 [Compound 8f, (E)-1-(2-hydroxy-4,6-dimethoxyphenyl)-3-(4-(2-(pyrrolidin-1-yl)ethoxy)phenyl)prop-2-en-1-one] | 81.4 | 1.7 | 18.5 ± 3.8 | 31.3 ± 8.2 | 
